Key:
Conditions in all cases: 72 h
[1] = test system: Caco-2; assay: cell viability relative to DMSO; higher = less toxic
[2] = test system: Calu-3; assay: as above
[3] = test system: HepG2; assay: as above
[4] = test system: U2OS; assay: as above
[5] = test system: Vero E6; assay: as above
[6] = test system: Caco-2; assay: relative viability EC50 (midpoint between 100% and the lowest measured viability); higher = less toxic
[7] = test system: Calu-3; assay: as above
[8] = test system: HepG2; assay: as above
[9] = test system: U2OS; assay: as above
[10] = test system: Vero E6; assay: as above
[11] = test system: Caco-2; assay: drug sensitivity score (DSS) for viability; higher = more toxic; extreme values may be limits of the assay
[12] = test system: Calu-3; assay: as above
[13] = test system: HepG2; assay: as above
[14] = test system: U2OS; assay: as above
[15] = test system: Vero E6; assay: as above

Row | Structure (SMILES) | cell viability ([1]; 1 nM) | cell viability ([1]; 10 nM) | cell viability ([1]; 100 nM) | cell viability ([1]; 1000 nM) | cell viability ([1]; 10000 nM) | cell viability ([2]; 1 nM) | cell viability ([2]; 10 nM) | cell viability ([2]; 100 nM) | cell viability ([2]; 1000 nM) | cell viability ([2]; 10000 nM) | cell viability ([3]; 1 nM) | cell viability ([3]; 10 nM) | cell viability ([3]; 100 nM) | cell viability ([3]; 1000 nM) | cell viability ([3]; 10000 nM) | cell viability ([4]; 1 nM) | cell viability ([4]; 10 nM) | cell viability ([4]; 100 nM) | cell viability ([4]; 1000 nM) | cell viability ([4]; 10000 nM) | cell viability ([5]; 1 nM) | cell viability ([5]; 10 nM) | cell viability ([5]; 100 nM) | cell viability ([5]; 1000 nM) | cell viability ([5]; 10000 nM) | relative viability EC50 [6] | relative viability EC50 [7] | relative viability EC50 [8] | relative viability EC50 [9] | relative viability EC50 [10] | drug sensitivity score [11] | drug sensitivity score [12] | drug sensitivity score [13] | drug sensitivity score [14] | drug sensitivity score [15]
1 | N#Cc1cc2nc(O)c(O)nc2cc1[N+](=O)[O-] [CNQX] | 99% | 96.1% | 99.8% | 97.5% | 94.6% | 95.9% | 101% | 106% | 97% | 85.8% | 99.4% | 94.7% | 99.1% | 98.3% | 99.5% | 97.9% | 101% | 97.9% | 104% | 96.8% | 100% | 100% | 104% | 94.8% | 95.2% | > 10 µM | > 10 µM | > 10 µM | > 10 µM | > 10 µM | 0 | 0.4 | 0 | 0 | 0
2 | O=C(O)C1=C(CSc2nnnn2CS(=O)(=O)O)CS[C@@H]2[C@H](NC(=O)[C@H](O)c3ccccc3)C(=O)N12 [Cefonicid (sodium)] | 97.8% | 102% | 93.4% | 97.7% | 102% | 95.7% | 97.2% | 97.9% | 96.6% | 95.8% | 103% | 100% | 92.2% | 103% | 97.7% | 95.1% | 99.2% | 94.3% | 101% | 94.4% | 99.9% | 98.9% | 102% | 99.1% | 99.5% | > 10 µM | > 10 µM | > 10 µM | > 10 µM | > 10 µM | 0 | 0 | 0 | 0 | 0
3 | CCn1c(=O)[nH]c2cc(Cl)c(Cl)cc21 [DCEBIO] | 98.2% | 97.2% | 99.7% | 93% | 98.7% | 101% | 98.6% | 93.8% | 96.9% | 102% | 101% | 104% | 104% | 86.3% | 107% | 98% | 103% | 98.3% | 98.3% | 97% | 102% | 100% | 96% | 99.9% | 99.2% | > 10 µM | > 10 µM | > 10 µM | > 10 µM | > 10 µM | 0 | 0 | 0 | 0 | 0
4 | CC(C)Oc1ccc(-c2cnc3c(-c4ccnc5ccccc45)cnn3c2)cc1 [DMH1] | 108% | 93.7% | 102% | 95.9% | 95.6% | 117% | 102% | 105% | 108% | 96.4% | 104% | 103% | 100% | 96.8% | 90% | 103% | 100% | 98.4% | 94.4% | 89.8% | 95.4% | 104% | 98.2% | 104% | 104% | > 10 µM | > 10 µM | > 10 µM | > 10 µM | > 10 µM | 0 | 0 | 0 | 0 | 0
5 | CC(=O)c1ccc(NS(C)(=O)=O)c(Oc2ccc(F)cc2F)c1 [FK-3311] | 99% | 90.1% | 96.9% | 94% | 95.8% | 110% | 93.1% | 103% | 109% | 114% | 98.3% | 107% | 98.6% | 99.5% | 87.3% | 104% | 98.1% | 98.7% | 97.2% | 102% | 98.3% | 101% | 96.2% | 102% | 92.8% | > 10 µM | > 10 µM | > 10 µM | > 10 µM | > 10 µM | 0 | 0 | 0.1 | 0 | 0
6 | CCCCC/C=C\C/C=C\CCCCCCCC(=O)NCCCC(=O)O [GABA-linoleamide] | 96.9% | 110% | 96.2% | 87.5% | 126% | 86% | 97.9% | 87% | 111% | 90.6% | 74.4% | 97.2% | 95.6% | 98.2% | 120% | 95.2% | 97.9% | 99.3% | 102% | 95.8% | 106% | 108% | 111% | 99.1% | 114% | > 10 µM | > 10 µM | > 10 µM | > 10 µM | > 10 µM | 0 | 0 | 0 | 0 | 0
7 | CC/C(=C(/c1ccc(/C=C/C(=O)O)cc1)c1ccc2[nH]ncc2c1)c1ccc(F)cc1Cl [GDC-0810] | 102% | 94.6% | 95% | 102% | 92.7% | 105% | 110% | 84.4% | 108% | 105% | 87.5% | 109% | 92.2% | 94.1% | 90.6% | 101% | 102% | 98.7% | 104% | 100% | 92.9% | 102% | 96.4% | 100% | 90.6% | > 10 µM | > 10 µM | > 10 µM | > 10 µM | > 10 µM | 0 | 0 | 0 | 0 | 0
8 | Cc1cc(C)c(CNC(=O)c2cc(-c3ccc(N4CCN(C)CC4)nc3)cc3c2c(C)cn3C(C)C)c(=O)[nH]1 [GSK503] | 98.8% | 104% | 93.7% | 105% | 102% | 88.3% | 85.3% | 92.9% | 109% | 104% | 92.6% | 112% | 99.7% | 94.4% | 87.2% | 104% | 98.6% | 104% | 101% | 102% | 101% | 104% | 105% | 98.6% | 102% | > 10 µM | > 10 µM | > 10 µM | > 10 µM | > 10 µM | 0 | 0 | 0.4 | 0 | 0
9 | CCN(CC)CCNC(=O)c1ccccc1I [I-BZA2] | 89.9% | 86.5% | 98.7% | 100% | 91.4% | 98.8% | 102% | 105% | 105% | 115% | 105% | 94.7% | 102% | 84% | 100% | 99.1% | 101% | 95.8% | 102% | 102% | 99% | 99.3% | 104% | 91.5% | 110% | > 10 µM | > 10 µM | > 10 µM | > 10 µM | > 10 µM | 0 | 0 | 0 | 0 | 0
10 | CCN(CC)CCNC(=O)c1ccc(I)cc1 [I-BZA] | 96.9% | 95.9% | 104% | 106% | 104% | 93.3% | 101% | 96.3% | 105% | 114% | 93.9% | 101% | 98.9% | 102% | 93.1% | 99.7% | 94.7% | 98.5% | 95.8% | 101% | 91.3% | 104% | 95% | 101% | 94.8% | > 10 µM | > 10 µM | > 10 µM | > 10 µM | > 10 µM | 0 | 0 | 0 | 0 | 0
11 | CCCNC(=O)Nc1ccc(Oc2ncnc3cc(OC)c(OC)cc23)cc1Cl [KRN-633] | 92.8% | 98.5% | 86.6% | 93% | 90.8% | 100% | 101% | 95.4% | 101% | 97.4% | 103% | 90.5% | 100% | 92.1% | 94.5% | 96.8% | 97.7% | 96% | 97% | 93.4% | 101% | 103% | 104% | 105% | 99.2% | > 10 µM | > 10 µM | > 10 µM | > 10 µM | > 10 µM | 0 | 0 | 0 | 0 | 0
12 | Cc1cc(N2CCCCC2)nc2ccccc12 [ML204] | 87.9% | 97.4% | 84.3% | 96.2% | 87.9% | 113% | 95.5% | 101% | 107% | 110% | 92% | 93.5% | 88.8% | 104% | 102% | 99.7% | 98.4% | 96.9% | 102% | 101% | 91.7% | 92.7% | 87.3% | 92.2% | 103% | > 10 µM | > 10 µM | > 10 µM | > 10 µM | > 10 µM | 0 | 0 | 0 | 0 | 0
13 | Cc1cc(NC(=O)Nc2ccc(F)c(F)c2)n(-c2ccccc2)n1 [ML297] | 96.9% | 97% | 95.9% | 108% | 99.2% | 103% | 98.5% | 105% | 97.4% | 98.7% | 105% | 90.5% | 108% | 91.6% | 98.1% | 97.1% | 101% | 101% | 103% | 98.2% | 104% | 99.5% | 98.2% | 102% | 99.5% | > 10 µM | > 10 µM | > 10 µM | > 10 µM | > 10 µM | 0 | 0 | 0 | 0 | 0
14 | O=C(Nc1ccc(O)cc1)c1ccccc1O [N-salicoylaminophenol] | 94.3% | 96% | 97.4% | 94.7% | 92.7% | 105% | 99.1% | 95.2% | 94.1% | 94.7% | 90.2% | 106% | 92.1% | 105% | 113% | 96.6% | 98.1% | 95.6% | 97.4% | 93.3% | 93.2% | 99.4% | 90.9% | 93.1% | 110% | > 10 µM | > 10 µM | > 10 µM | > 10 µM | > 10 µM | 0 | 0 | 0 | 0 | 0
